Measured values published in article PMC9144433, “The Effect of Standardised Leaf Extracts of Gaultheria procumbens on Multiple Oxidants, Inflammation-Related Enzymes, and Pro-Oxidant and Pro-Inflammatory Functions of Human Neutrophils” (Molecules, 2022).

Columns and labels:
[1] = target: T1, hyaluronidase (HYAL); test: HYAL inhibition, 96-well plate reader; format: biochemical; settings: positive control; n = […]
T1 construct: gene SPAM1; reagents from Sigma-Aldrich; bovine testes preparation is usual
Excerpt: HYAL inhibition, 96-well plate reader on hyaluronidase (HYAL)

[2] = target: T2, lipoxygenase (LOX); test: LOX inhibition, 96-well plate reader; format: biochemical; settings: positive control; n = […]
T2 construct: gene LOX1.1; reagents from Sigma-Aldrich; soybean enzyme is usual

HYAL / IC50 (μg/mL) ^a [1] [µg/mL]	LOX / IC50 (μg/mL) ^a [2] [µg/mL]	SMILES
31.78 ± 1.52		O=c1c(O)c(-c2ccc(O)c(O)c2)oc2cc(O)cc(O)c12 [compound 41, QU]
14.07 ± 1.25	120.16 ± 4.86	C[C@@H]1C[C@H]2[C@@H]3CCC4=CC(=O)C=C[C@]4(C)[C@@]3(F)[C@@H](O)C[C@]2(C)[C@@]1(O)C(=O)CO [DEX]
12.68 ± 1.79	91.89 ± 3.95	COc1ccc2c(c1)c(CC(=O)O)c(C)n2C(=O)c1ccc(Cl)cc1 [IND]
